Reference: ChEMBL document CHEMBL1201862, “PubChem BioAssay data set” (2004)
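1) Cells in 96-well plates. 2) Compound, 48 h, 5 concentrations. 3) Linear interpolation between surrounding doses. 4) Unreached endpoint = highest concentration. GI50 is the concentration that inhibits growth by half.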 Activity calls are given as the source filed them. Cut-off read from the data, not from the text of the source: active = GI50 up to about 1.1 µM and inactive = higher.

Key:
Assay in all cases: growth of human tumour cells (NCI), 48 h
[1] = system: OVCAR-5
[2] = system: SK-OV-3
[3] = system: MDA-MB-435
[4] = system: EKVX
[5] = system: SK-MEL-28
[6] = system: IGROV-1
[7] = system: NCI-H460
[8] = system: NCI-H226
[9] = system: HCT-116
[10] = system: OVCAR-3
[11] = system: PC-3
[12] = system: BT-549
[13] = system: SK-MEL-2
[14] = system: MDA-MB-231
[15] = system: SF-295
[16] = system: NCI/ADR-RES
[17] = system: HCT-15
[18] = system: T47D
[19] = system: MCF7
[20] = system: TK-10
[21] = system: OVCAR-8
[22] = system: OVCAR-4
[23] = system: SNB-19
[24] = system: U-251
[25] = system: MOLT-4
[26] = system: HT-29
[27] = system: K562
[28] = system: A549
[29] = system: KM12
[30] = system: DU-145
[31] = system: 786-0
[32] = system: MDA-N
[33] = system: UACC-257
[34] = system: SN12C
[35] = system: NCI-H23
[36] = system: SF-539
[37] = system: COLO 205
[38] = system: UACC-62
[39] = system: HOP-92
[40] = system: SNB-75
[41] = system: M14
[42] = system: SK-MEL-5
[43] = system: RXF 393
[44] = system: UO-31
[45] = system: RPMI-8226
[46] = system: ACHN
[47] = system: HOP-62
[48] = system: Malme-3M
[49] = system: HL-60
[50] = system: A498
[51] = system: SR
[52] = system: CAKI-1
[53] = system: Hs-578T
[54] = system: SF-268
[55] = system: SW-620
[56] = system: HCC 2998
[57] = system: LOX IMVI
[58] = system: NCI-H522
[59] = system: CCRF-CEM

O=C(CSc1nc2ccc(I)cc2c(=O)n1Cc1ccccc1)NN1C(=O)c2ccccc2C1=O
GI50 [1]: 26.2 µM (inactive) | GI50 [2]: 11.6 µM (inactive) | GI50 [3]: 34.4 µM (inactive) | GI50 [4]: 12.9 µM (inactive) | GI50 [5]: 17.9 µM (inactive) | GI50 [6]: 19.3 µM (inactive) | GI50 [7]: 22.9 µM (inactive) | GI50 [8]: 6.3 µM (inactive) | GI50 [9]: 16.7 µM (inactive) | GI50 [10]: 11.6 µM (inactive) | GI50 [11]: 4.09 µM (inactive) | GI50 [12]: 15.4 µM (inactive) | GI50 [13]: 10.8 µM (inactive) | GI50 [14]: 11.2 µM (inactive) | GI50 [15]: 10.6 µM (inactive) | GI50 [16]: 15.5 µM (inactive) | GI50 [17]: 30.1 µM | GI50 [18]: 15.8 µM (inactive) | GI50 [19]: 23.3 µM (inactive) | GI50 [20]: 13.7 µM (inactive) | GI50 [21]: 11.8 µM (inactive) | GI50 [22]: 12.2 µM (inactive) | GI50 [23]: 16.5 µM (inactive) | GI50 [24]: 12.7 µM (inactive) | GI50 [25]: 28.4 µM (inactive) | GI50 [26]: 24.8 µM (inactive) | GI50 [27]: 31 µM (inactive) | GI50 [28]: 18 µM (inactive) | GI50 [29]: 31.2 µM (inactive) | GI50 [30]: 25.4 µM (inactive) | GI50 [31]: 6.04 µM (inactive) | GI50 [32]: 37.3 µM (inactive) | GI50 [33]: 17.5 µM (inactive) | GI50 [34]: 18.8 µM (inactive) | GI50 [35]: 18.2 µM (inactive) | GI50 [36]: 3.42 µM (inactive) | GI50 [37]: 25.5 µM (inactive) | GI50 [38]: 24.9 µM (inactive) | GI50 [39]: 14.4 µM (inactive) | GI50 [40]: 4.3 µM (inactive) | GI50 [41]: 28.5 µM (inactive) | GI50 [42]: 18.1 µM (inactive) | GI50 [43]: 8.3 µM (inactive) | GI50 [44]: 2.37 µM (inactive) | GI50 [45]: 33.3 µM (inactive) | GI50 [46]: 18.9 µM (inactive) | GI50 [47]: 4.75 µM (inactive) | GI50 [48]: 18.2 µM (inactive) | GI50 [49]: 16.7 µM (inactive) | GI50 [50]: 14.8 µM (inactive) | GI50 [51]: 25.7 µM (inactive) | GI50 [52]: 9.23 µM (inactive) | GI50 [53]: 6.47 µM (inactive) | GI50 [54]: 8.85 µM (inactive) | GI50 [55]: 27.5 µM (inactive) | GI50 [56]: 28.8 µM (inactive) | GI50 [57]: 15 µM (inactive) | GI50 [58]: 14.9 µM (inactive)

CC12Nc3ccccc3N1C(=O)c1ccccc12 (configuration not stated)
GI50 [1]: > 100 µM (inactive) | GI50 [2]: > 100 µM (inactive) | GI50 [3]: > 100 µM (inactive) | GI50 [4]: > 100 µM (inactive) | GI50 [5]: > 100 µM (inactive) | GI50 [6]: > 100 µM (inactive) | GI50 [7]: > 100 µM (inactive) | GI50 [8]: > 100 µM (inactive) | GI50 [9]: > 100 µM (inactive) | GI50 [10]: > 100 µM (inactive) | GI50 [11]: > 100 µM (inactive) | GI50 [12]: > 100 µM (inactive) | GI50 [13]: > 100 µM (inactive) | GI50 [14]: > 100 µM (inactive) | GI50 [15]: > 100 µM (inactive) | GI50 [16]: > 100 µM (inactive) | GI50 [17]: > 100 µM | GI50 [18]: > 100 µM (inactive) | GI50 [19]: > 100 µM (inactive) | GI50 [20]: > 100 µM (inactive) | GI50 [21]: > 100 µM (inactive) | GI50 [22]: > 100 µM (inactive) | GI50 [23]: > 100 µM (inactive) | GI50 [24]: > 100 µM (inactive) | GI50 [25]: > 100 µM (inactive) | GI50 [26]: > 100 µM (inactive) | GI50 [27]: > 100 µM (inactive) | GI50 [28]: > 100 µM (inactive) | GI50 [29]: > 100 µM (inactive) | GI50 [30]: 88.1 µM (inactive) | GI50 [31]: > 100 µM (inactive) | GI50 [32]: > 100 µM (inactive) | GI50 [33]: > 100 µM (inactive) | GI50 [34]: > 100 µM (inactive) | GI50 [35]: > 100 µM (inactive) | GI50 [36]: > 100 µM (inactive) | GI50 [37]: > 100 µM (inactive) | GI50 [38]: > 100 µM (inactive) | GI50 [39]: > 100 µM (inactive) | GI50 [41]: > 100 µM (inactive) | GI50 [42]: > 100 µM (inactive) | GI50 [43]: > 100 µM (inactive) | GI50 [44]: > 100 µM (inactive) | GI50 [45]: > 100 µM (inactive) | GI50 [46]: > 100 µM (inactive) | GI50 [47]: > 100 µM (inactive) | GI50 [49]: > 100 µM (inactive) | GI50 [50]: > 100 µM (inactive) | GI50 [51]: > 100 µM (inactive) | GI50 [52]: > 100 µM (inactive) | GI50 [53]: > 100 µM (inactive) | GI50 [54]: > 100 µM (inactive) | GI50 [55]: > 100 µM (inactive) | GI50 [56]: > 100 µM (inactive) | GI50 [57]: > 100 µM (inactive) | GI50 [59]: > 100 µM (inactive) | GI50 [58]: > 100 µM (inactive)

CCCNC(C#N)c1ccc(OCCCCCCCCCCOc2ccc(C(C#N)NCCC)cc2)cc1 (configuration not stated)
GI50 [1]: 69.8 µM (inactive) | GI50 [2]: 64 µM (inactive) | GI50 [3]: 46.3 µM (inactive) | GI50 [4]: 60.5 µM (inactive) | GI50 [5]: > 100 µM (inactive) | GI50 [6]: 54.6 µM (inactive) | GI50 [7]: 50.5 µM (inactive) | GI50 [8]: 30.8 µM (inactive) | GI50 [9]: 31.9 µM (inactive) | GI50 [10]: 30.5 µM (inactive) | GI50 [11]: 30.8 µM (inactive) | GI50 [12]: 75 µM (inactive) | GI50 [13]: 38.5 µM (inactive) | GI50 [14]: > 100 µM (inactive) | GI50 [15]: 31.3 µM (inactive) | GI50 [16]: 56.8 µM (inactive) | GI50 [17]: 47.3 µM | GI50 [18]: 64 µM (inactive) | GI50 [19]: 35.2 µM (inactive) | GI50 [20]: 29.2 µM (inactive) | GI50 [21]: 30.9 µM (inactive) | GI50 [22]: 34.5 µM (inactive) | GI50 [23]: 33.2 µM (inactive) | GI50 [24]: 20.9 µM (inactive) | GI50 [25]: 17.1 µM (inactive) | GI50 [26]: 51.1 µM (inactive) | GI50 [27]: 23.6 µM (inactive) | GI50 [28]: 47 µM (inactive) | GI50 [29]: 64.7 µM (inactive) | GI50 [30]: 49 µM (inactive) | GI50 [31]: > 100 µM (inactive) | GI50 [32]: 29.4 µM (inactive) | GI50 [33]: 48.5 µM (inactive) | GI50 [34]: 68.9 µM (inactive) | GI50 [35]: 51.3 µM (inactive) | GI50 [36]: 55.2 µM (inactive) | GI50 [37]: > 100 µM (inactive) | GI50 [38]: 61.2 µM (inactive) | GI50 [39]: 32.4 µM (inactive) | GI50 [40]: 32.8 µM (inactive) | GI50 [41]: 40.4 µM (inactive) | GI50 [42]: 33.3 µM (inactive) | GI50 [43]: 23.9 µM (inactive) | GI50 [44]: 51.8 µM (inactive) | GI50 [46]: 83.9 µM (inactive) | GI50 [47]: 42.8 µM (inactive) | GI50 [48]: 64 µM (inactive) | GI50 [49]: 17.3 µM (inactive) | GI50 [50]: 23.1 µM (inactive) | GI50 [51]: 25.6 µM (inactive) | GI50 [53]: 37.7 µM (inactive) | GI50 [54]: 61.8 µM (inactive) | GI50 [55]: 41.3 µM (inactive) | GI50 [56]: > 100 µM (inactive) | GI50 [57]: 14.8 µM (inactive) | GI50 [59]: 15.3 µM (inactive) | GI50 [58]: 72.6 µM (inactive)
